Data on six molecules can be found in patent US9981972B2, “N-hydroxy bicyclic hydantoin carbamates as tools for identification of serine hydrolase targets” (ABIDE THERAPEUTICS, INC., priority 2014, dated 2018).

In assay [1] the target is T1, ABHD3 (Homo sapiens, UniProt Q8WU67).
T1 construct: endogenous in cells; host or cells: PC3
Kind of assay: ABPP-SILAC, PC3 cells treated in situ. The note with it: 4 h in situ, FP-biotin. In kind it is cell-based. The method, then: In situ inhibitor treatments of human cell lines were performed as described previously (Hsu et al., J Med Chem 56, 8270-8279, 2012). Briefly, PC3 or transfected HEK293T cells were grown to confluency in serum-containing media (RPMI or DMEM, respectively). The culture media was then removed and replaced with fresh media containing DMSO or inhibitor at the desired concentration and incubated for 4 hours in a tissue culture incubator (37° C., 5% CO2). Cells were then washed with PBS, harvested, washed with PBS once more, and lysed with a probe sonicator.
The activity and selectivity of dual ABHD3/4 and ABHD4-preferring inhibitors in PC3 cells by ABPP-SILAC was assessed. Isotopically heavy and light PC3 cells were treated in situ with inhibitor (Compound 37 (1 μM) or Compound 38 (0.5 μM)) or DMSO for 4 h and then lysed and processed for ABPP-SILAC analysis.

The target of assay [2] is T2, human LYPLA1 (Homo sapiens, UniProt O75608).
T2 construct: endogenous human LYPLA1/2 in a HeLa soluble proteome; endogenous in cells; host or cells: HeLa (soluble proteome in vitro; cultured cells in situ)
T2 sequence (O75608 whole entry): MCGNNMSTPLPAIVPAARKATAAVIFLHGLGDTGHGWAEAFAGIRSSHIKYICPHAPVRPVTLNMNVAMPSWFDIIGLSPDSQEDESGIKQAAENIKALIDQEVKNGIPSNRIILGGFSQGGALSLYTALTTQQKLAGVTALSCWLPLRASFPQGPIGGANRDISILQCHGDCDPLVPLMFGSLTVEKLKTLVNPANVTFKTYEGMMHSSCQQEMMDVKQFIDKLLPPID
In words: IC50 by gel-based competitive ABPP in vitro, soluble HeLa cell proteome. In kind it is biochemical.

Assay [3] has as its target T3, human LYPLA2 (Homo sapiens, UniProt O95372).
T3 construct: endogenous human LYPLA1/2 in a HeLa soluble proteome; endogenous in cells; host or cells: HeLa (soluble proteome in vitro; cultured cells in situ)
The description is as above. In kind it is biochemical.

The target of assay [4] is T4, PPT1 (Mus musculus, UniProt O88531).
T4 construct: from tissue; host or cells: central and peripheral tissues (e.g. brain, testis) of C57BL6 mice
T4 sequence (O88531 28-306): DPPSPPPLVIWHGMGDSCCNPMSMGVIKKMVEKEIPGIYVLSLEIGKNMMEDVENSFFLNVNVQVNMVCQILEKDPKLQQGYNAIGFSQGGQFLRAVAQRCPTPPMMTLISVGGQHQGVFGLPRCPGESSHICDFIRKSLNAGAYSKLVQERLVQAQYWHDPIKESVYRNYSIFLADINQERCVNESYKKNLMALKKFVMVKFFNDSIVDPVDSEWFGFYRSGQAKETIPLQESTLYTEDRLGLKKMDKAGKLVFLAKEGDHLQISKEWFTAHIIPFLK
In words: Inhibition by gel-based competitive ABPP in vivo (Compound 39 probe). The method, then: Compound 26, Compound 34, and Compound 1 were administered across a dose range of 1-40 mg/kg to C57BL6 mice by intraperitoneal injection, and, after 4 hours, animals were sacrificed and tissues harvested for analysis by gel-based ABPP using the FP-Rh probe and the Compound 39 probe.

In assay [5] the test system is FP-sensitive SHs in the mouse brain membrane proteome. Kind of assay: Gel-based competitive ABPP in vitro, mouse brain membrane proteome, anti-targets. In kind it is biochemical. Put shortly:
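Mouse brain membrane proteome (1 mg/mL in DPBS) was treated with compound (0.1-100 μM) for 30 min at 37 °C, then labeled with FP-Rh (2 μM final, 30 min, 25 °C). Bands were resolved by SDS-PAGE and scanned in-gel, with inhibition taken from band optical density versus DMSO. Targets counted as active or anti-targets at ≥50% inhibition.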

Where [6] appears, read: first value of the cell, read-out: hLYPLA1/2 in vitro potency (IC50): hLYPLA1.
The mark [7] stands for this setting: second value of the cell, read-out: hLYPLA1/2 in vitro potency (IC50): hLYPLA2.

Entries after “also recorded” stand apart in the source; their conditions may differ. Like-named read-outs stand apart in the source and are kept apart here.

T3 sequence (O95372 whole entry): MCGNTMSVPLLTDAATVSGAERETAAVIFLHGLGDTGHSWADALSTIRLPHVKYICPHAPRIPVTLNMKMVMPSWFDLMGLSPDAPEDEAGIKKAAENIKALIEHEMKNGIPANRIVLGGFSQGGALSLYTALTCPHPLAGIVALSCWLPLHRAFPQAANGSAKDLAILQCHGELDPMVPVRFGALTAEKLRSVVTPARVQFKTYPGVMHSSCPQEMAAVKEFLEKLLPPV
T1 sequence (Q8WU67 whole entry): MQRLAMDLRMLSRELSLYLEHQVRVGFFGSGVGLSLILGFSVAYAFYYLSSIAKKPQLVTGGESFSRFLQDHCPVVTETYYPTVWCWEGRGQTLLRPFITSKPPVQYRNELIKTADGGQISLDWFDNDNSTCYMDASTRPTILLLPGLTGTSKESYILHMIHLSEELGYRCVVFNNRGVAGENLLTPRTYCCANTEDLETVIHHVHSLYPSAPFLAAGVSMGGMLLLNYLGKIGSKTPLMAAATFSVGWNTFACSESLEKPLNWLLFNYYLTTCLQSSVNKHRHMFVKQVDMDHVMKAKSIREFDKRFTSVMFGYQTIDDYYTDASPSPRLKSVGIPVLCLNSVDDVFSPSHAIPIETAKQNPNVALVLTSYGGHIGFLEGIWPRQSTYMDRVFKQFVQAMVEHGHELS

As to `COc1ccc(N2CCN(C(=O)ON3C(=O)C4CN(Cc5ccc(Oc6ccccc6)cc5)CCN4C3=O)CC2)cc1` (stereo not shown) [Compound 37, 1,3-dioxo-7-(4-phenoxybenzyl)hexahydroimidazo[1,5-a]pyrazin-2(3H)-yl 4-(4-methoxyphenyl)piperazine-1-carboxylate], the inhibition at 1 µM in assay [1] (PC-3, 1 μM) is about 80%.
For `C#Cc1ccc(CCC2CCN(C(=O)ON3C(=O)[C@H]4CN(C(=O)N5CCOCC5)CCN4C3=O)CC2)cc1` [Compound 49, (R)-7-(morpholine-4-carbonyl)-1,3-dioxo-hexahydroimidazo[1,5-a]pyrazin-2(3H)-yl 4-(4-ethynylphenethyl)piperidine-1-carboxylate], the results for the IC50 in assay [2] (setting [6]) and in assay [3] (setting [7]) were 842 nM and 1430 nM, respectively.
Turning to `COc1ccc(N2CCN(C(=O)ON3C(=O)C4CN(CC5CCN(Cc6ccccc6)CC5)CCN4C3=O)CC2)cc1` (stereo not shown) [Compound 26, 7-((1-benzylpiperidin-4-yl)methyl)-1,3-dioxohexahydroimidazo[1,5-a]pyrazin-2(3H)-yl 4-(4-methoxyphenyl)piperazine-1-carboxylate], the “mPPT1 (in vivo), % @ 5 mg/kg (testis)” value in assay [4] (5 mg/kg, testis, mouse) amounted to 100% @ 5 mg/kg. In addition, the “blockade of PPT1 in vivo” value in assay [4] (1-5 mg/kg i.p., 4 h, central and peripheral tissues) is on record as “near-complete blockade”.
Turning to `O=C(ON1C(=O)C2CN(Cc3ccc(Oc4ccccc4)cc3)CCN2C1=O)N1CCC(c2ccccc2)CC1` (stereo not shown) [Compound 38, 1,3-dioxo-7-(4-phenoxybenzyl)hexahydroimidazo[1,5-a]pyrazin-2(3H)-yl 4-phenylpiperidine-1-carboxylate], the “concentration-dependent profiling, ABHD3 and ABHD4” value in assay [5] (mouse brain membrane SHs, FIG. 7B) was “promising lead inhibitor for ABHD3 and ABHD4”. Besides, in assay [1] (0.5 μM), the “inhibition of ABHD3 in PC3 cells” value is “inhibit both ABHD3 and ABHD4”.
Take `C#Cc1ccc(CCC2CCN(C(=O)ON3C(=O)[C@@H]4CN(C(=O)N5CCOCC5)CCN4C3=O)CC2)cc1` [Compound 48, (S)-7-(morpholine-4-carbonyl)-1,3-dioxo-hexahydroimidazo[1,5-a]pyrazin-2(3H)-yl 4-(4-ethynylphenethyl)piperidine-1-carboxylate]: the figures for the IC50 in assay [2] (setting [6]) and in assay [3] (setting [7]) were 1750 nM and 1830 nM, respectively.
Turning to `O=C(ON1C(=O)C2CN(C(=O)N3CCOCC3)CCN2C1=O)N1CCC(CCc2ccc(Cl)cc2)CC1` (stereo not shown) [Compound 1, 7-(morpholine-4-carbonyl)-1,3-dioxohexahydroimidazo[1,5-a]pyrazin-2(3H)-yl 4-(4-chloro-phenethyl)piperidine-1-carboxylate], the “Anti-target(s) 1 μM” value in assay [5] (SHs with at least 50% inhibition at 1 μM compound) was “ABHD6”. The “Anti-target(s) 10 μM” value in assay [5] (SHs with at least 50% inhibition at 10 μM compound) is on record as “FAAH,; also recorded: ABHD6”. In addition, the “Anti-target(s) 100 μM” value in assay [5] (SHs with at least 50% inhibition at 100 μM compound) is on record as “FAAH,; also recorded: ABHD12,; also recorded: MAGL,; also recorded: ABHD6”. Moreover, the IC50 in assay [2] (HeLa cell lysates, FP-Rh, read-out: human LYPLA1 IC50 in vitro) is 122 nM; in assay [3] (HeLa cell lysates, FP-Rh, read-out: human LYPLA2 IC50 in vitro) it was 245 nM. Further, the “mPPT1 (in vivo), % @ 10 mg/kg (testis)” value in assay [4] (10 mg/kg, testis, mouse) worked out at 100% @ 10 mg/kg. Also, in assay [4] (i.p., 4 h, Compound 39 probe), the “dose inhibiting PPT1 in vivo” value is recorded as at least 10 mg/kg.

As a reminder, the inhibition is how much of the control response was suppressed. A higher inhibition goes with a response far below the control.
